Measurements taken from patent US7928099B2, “Pyrimido [4,5-D] azepine derivatives as 5-HT2c agonists” (Pfizer Inc, priority 2007, dated 2011).
Structures can show the parent of a compound that is named as a salt.

Columns and labels:
[1] = biological target: T1, human recombinant 5-HT2c receptor (Homo sapiens, UniProt P28335); test: 3H-meselurgine radioligand binding SPA, membranes from Swiss 3T3 cells (Method 2); details: 3H-meselurgine displacement, Cheng-Prusoff; Swiss 3T3 membranes; read-out: Binding Affinity Ki
T1 construct: expressed in transfected cells; host or cells: CHO K1 (Chinese hamster ovary), stably transfected
T1 sequence (P28335 33-458): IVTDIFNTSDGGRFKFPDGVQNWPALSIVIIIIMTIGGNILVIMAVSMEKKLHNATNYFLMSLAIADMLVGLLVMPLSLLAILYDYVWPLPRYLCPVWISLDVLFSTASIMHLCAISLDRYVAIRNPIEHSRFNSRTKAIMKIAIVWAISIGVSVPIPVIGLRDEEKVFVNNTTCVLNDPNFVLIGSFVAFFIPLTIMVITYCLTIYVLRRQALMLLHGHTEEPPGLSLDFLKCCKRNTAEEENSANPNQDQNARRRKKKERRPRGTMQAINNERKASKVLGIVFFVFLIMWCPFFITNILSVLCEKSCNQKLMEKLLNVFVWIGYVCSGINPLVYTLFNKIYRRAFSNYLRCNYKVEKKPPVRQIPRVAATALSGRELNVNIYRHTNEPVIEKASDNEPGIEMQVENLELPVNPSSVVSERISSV
Protocol: (§1) The compounds of the invention were evaluated for biological activity by measuring the agonist affinity (EC50) and efficacy (Emax) at the human recombinant 5-HT2c receptor expressed in CHO K1 cells, using a fluorescent based Ca^2+ mobilisation assay format compatible with FLIPR technology (Method 1). Additionally, the binding activity of a compound was determined by measuring its affinity for the human recombinant 5-HT2c receptor membranes from Swiss 3T3 cells (Method 2).
The compounds were tested for biological activity by their ability to inhibit binding of the radioligand ^3H-meselurgine at the human recombinant 5-HT2C receptor expressed in the Swiss 3T3 cells using a scintillation proximity assay (SPA) technology.
Swiss 3T3 stably transfected with the 5-HT2C receptor were cultured under standard cell culture techniques. Specifically, cells were grown in 50 mL growth medium (Dulbecco's Modified Eagle's Medium (DMEM) culture media supplemented with 10% dialysed foetal calf serum (FCS), 2 mM penicillin/streptomycin and 20 μg/mL geneticin) in 225 cm^2 flasks at 37° C. and 5% CO2. Cells were grown to 60-80% confluency, harvested using trypsin-EDTA and pelleted by centrifugation for long-term storage at −80° C.
Cell pellets were thawed on ice and resuspended in 3 mL of membrane preparation buffer (see Media and Buffers for composition) per 1 mL of packed cell. The suspension was homogenised on ice for several 5 s intervals using a hand-held homogeniser. The homogenate was then centrifuged at 1,000 rpm for 5 min at 4° C.
The supernatants were then collected and retained. Initial cell & nuclei pellets (P1) were subsequently rehomogenised and centrifuged using the conditions cited above, and the supernatants collected and pooled with those retained from the first spin.
The pooled supernatants were centrifuged at 19,500 rpm for 45 min at 4° C., and the supernatants discarded. The pellets (P2) were then resuspended in 3 mL of membrane preparation buffer per 1 mL of the original packed cell volume. Protein concentrations were subsequently measured and the membrane suspension was finally frozen in aliquots of set volume and stored at −80° C. prior to use in assays.
For each batch of membrane used, optimal concentrations of Polylysine YSi SPA beads and membrane were determined. The assay free radioligand concentration was expressed as a percentage of the total free radioligand concentration to give an estimate of the radioligand depletion.
The affinity of ^3H-meselurgine for the human recombinant 5-HT2c receptor was determined for each membrane batch at the selected protein and bead concentrations. […] The mean KD for ^3H-meselurgine at a batch of membranes was determined from data from a minimum of three separate assays.
The required amount of membrane, was thawed on ice and added to a pre-determined volume of bead suspension in 50 mM HEPES buffer, pH 7.4. The beads were then pre-coupled by incubating the predetermined protein quantity per mg of bead on a roller 4° C. for 1 h. Subsequently, the bead/membrane complex was spun down at 1000 rpm for 5 min. The resulting pellet was resuspended in assay buffer at the specific concentration required for the final assay.
An aliquot of [^3H]-meselurgine stock was diluted in binding assay buffer to give a pre-determined final assay concentration less than the equilibrium dissociation constant (KD) value.
All test compounds were prepared at a concentration of 4 mM in 100% dimethyl sulphoxide (DMSO) from dry samples.
The same volume of assay buffer was added to specific wells of the plate to enable subsequent measurement of total radioligand binding. Furthermore, 5 μL of Mianserin at 25 μM (2.5 μM final assay concentration was subsequently added to pre-determined wells to determine non-specific binding (NSB).

[2] = biological target: T1, human recombinant 5-HT2c receptor; test: FLIPR fluorescent Ca2+ mobilisation agonist assay in CHO K1 cells (Method 1); assay type: cell-based; details: for Emax / Emax %: percentage of mean maximal response to 10 μM 5-HT; for EC50: agonist affinity, FLIPR
Protocol: as §1
The agonist affinity of the compounds were tested by measuring their ability to induce a fluorescent based Ca^2+ mobilization signal in a FLIPR assay using CHO K1 cells expressing recombinant human 5-HT2C receptor. Both agonist affinity (EC50) and efficacy (Emax) were determined.
Chinese hamster ovary cells (CHO K1) stably transfected with the 5-HT2c receptor were cultured under standard cell culture techniques. Specifically, cells were grown at 37° C. and 5% CO2 in Dulbecco's Modified Eagle's Medium (DMEM) culture media supplemented with 10% dialysed foetal calf serum (FCS), 1% non-essential amino acids, 1 mM sodium pyruvate, 800 μg/mL geneticin and 50 μg/ml zeocin. Cells were harvested for passaging and storage using trypsin-EDTA, centrifugation and resuspension in culture medium. Cells were grown to 60-80% confluency, harvested and adjusted to 15-20×10^6 cells/ml/vial in medium/10% DMSO and stored long-term at −80° C.
Cells were seeded into black-walled clear-bottomed 384 well plates 24 h before use. Frozen cells were defrosted in a 37° C. water bath and immediately transferred into 1 mL/vial 37° C. culture medium, diluted to 10 ml and DMSO removed by centrifugation. The cells were resuspended in 15 ml/vial of cell culture medium, counted and adjusted to give 500,000 cells/mL (10,000 cells/well). […] of cell suspension was added to the 384 well plates which were then incubated overnight at 37° C.
The maximum agonist response was determined with 5-HT at a final assay concentration of 10 μM in the diluent above. The minimum response was determined with Dulbeccos PBS (+CaCl2, +MgCl2) with 0.9% DMSO and 0.05% pluronic F-127. Test compounds, maximum and minimum controls were added to a 384 well polypropylene plate.
The FLIPR calcium assay reagent was diluted with assay buffer (Hank's Balanced Salt Solution (HBSS))/20 mM HEPES and 2.5 mM probenecid (diluted with 1M Sodium hydroxide and DPBS (+CaCl2, +MgCl2)).
20 μl/well FLIPR calcium assay reagent was added to the cell plates, which were incubated for 1 h at 37° C. Cell plates and compound plates were then transferred onto the FLIPR. The assay was run using the appropriate FLIPR program, which initiates the reaction by transferring 15 μL compound into the corresponding, well of the cell plate.
The statistical parameter exported from each well was the max peak height of the response.

Row | SMILES | Ki [1] [µM] | Emax ([2]; CHO-K1, efficacy) [%] | EC50 [2] [µM] | Emax % ([2]; efficacy) [%] | Emax ([2]; efficacy) [%]
1 | CN(C)c1ncc2c(n1)CCNCC2 [Example 50, N,N-dimethyl-6,7,8,9-tetrahydro-5H-pyrimido[4,5-d]azepin-2-amine hydrochloride] | 0.552 | 100 | 0.481 |  | 
2 | Clc1cccc(Cc2ncc3c(n2)CCNCC3)c1 [Example 56, 2-(3-Chlorobenzyl)-6,7,8,9-tetrahydro-5H-pyrimido[4,5-d]azepine] | 0.0839 |  | 0.18 |  | 55.9
3 | c1ccc(Cc2nc3c(c(C4CC4)n2)CCNCC3)cc1 [Example 53, 2-Benzyl-4-cyclopropyl-6,7,8,9-tetrahydro-5H-pyrimido[4,5-d]azepine] | 0.105 | 49.6 | 0.293 |  | 
4 | CC1CNCCc2cnc(Cc3ccccc3)nc21 (single isomer, unassigned) [47 (Peak 1), 2-Benzyl-9-methyl-6,7,8,9-tetrahydro-5H-pyrimido[4,5-d]azepine] | 0.133 |  | 0.453 | 96.40 | 
5 | Cc1nc(Cc2ccccc2)nc2c1CCNCC2 [Example 68, 2-Benzyl-4-methyl-6,7,8,9-tetrahydro-5H-pyrimido[4,5-d]azepine] | 0.421 | 71.4 | 0.179 |  | 
6 | COc1nc(N(C)Cc2ccccc2)nc2c1CCNCC2 [Example 16, N-benzyl-4-methoxy-N-methyl-6,7,8,9-tetrahydro-5H-pyrimido[4,5,d]azepin-2-amine] | 0.0547 | 41.4 | 0.526 |  | 
7 | c1ccc(Cc2nc3c(c(OCC4CCOCC4)n2)CCNCC3)cc1 [Example 80, 2-benzyl-4-(tetrahydro-2H-pyran-4-ylmethoxy)-6,7,8,9-tetrahydro-5H-pyrimido[4,5-d]azepine] |  | 74.2 | 0.184 |  | 
8 | CCCNc1nc(N(C)CC2CC2)nc2c1CCNCC2 [Example 103, N-2-(cyclopropylmethyl)-N-2-methyl-N-4-propyl-6,7,8,9-tetrahydro-5H-pyrimido[4,5-d]azepine-2,4-diamine] |  | 32.7 | 0.449 |  | 
9 | c1ccc(CCNc2nc(N3CCSCC3)nc3c2CCNCC3)cc1 [Example 91, N-(2-phenylethyl)-2-thiomorpholin-4-yl-6,7,8,9-tetrahydro-5H-pyrimido-[4,5-d]azepin-4-amine] |  | 69.6 | 0.186 |  | 
10 | c1ccc(Cc2nc3c(c(OCCc4ccncc4)n2)CCNCC3)cc1 [Example 79, 2-benzyl-4-(2-pyridin-4-ylethoxy)-6,7,8,9-tetrahydro-5H-pyrimido[4,5-d]azepine] |  | 67.3 | 0.154 |  | 
11 | CCCNc1nc2c(c(N3CCSCC3)n1)CCNCC2 [Example 111, N-propyl-4-thiomorpholin-4-yl-6,7,8,9-tetrahydro-5H-pyrimido[4,5-d]-azepin-2-amine] |  | 64.3 | 0.141 |  | 
12 | CN(C)c1nc(N(C)Cc2ccccc2)nc2c1CCNCC2 [Example 113, N-2-benzyl-N-2,N-4,N-4-trimethyl-6,7,8,9-tetra-hydro-5H-pyrimido[4,5-d]azepine-2,4-diamine] |  |  | 0.279 | 50.8 | 
13 | CCN(C)c1nc2c(c(N(C)C)n1)CCNCC2 [Example 100, N-2-ethyl-N-2,N-4,N-4-trimethyl-6,7,8,9-tetra-hydro-5H-pyrimido-[4,5-d]azepine-2,4-diamine] |  | 51.2 | 0.122 |  | 
14 | CCN(C)c1nc(N2CCOCC2)nc2c1CCNCC2 [Example 95, N-ethyl-N-methyl-2-morpholin-4-yl-6,7,8,9-tetrahydro-5H-pyrimido-[4,5-d]azepin-4-amine] |  | 88.4 | 0.229 |  | 

Stronger by EC50 [2], values ahead:

Row | Ki [1] [µM] | Emax ([2]; CHO-K1, efficacy) [%] | EC50 [2] [µM] | Emax % ([2]; efficacy) [%] | SMILES | Emax ([2]; efficacy) [%]
15 | 0.0247 | 87.3 | 0.0759 |  | CN(CC1CC1)c1nc(N2CCSCC2)nc2c1CCNCC2 [Example 90, N-(cyclopropylmethyl)-N-methyl-2-thiomorpholin-4-yl-6,7,8,9-tetrahydro-5H-pyrimido[4,5-d]azepin-4-amine] | 
16 | 0.0416 | 78.4 | 0.1 |  | C1CCN(c2nc3c(c(N4CCSCC4)n2)CCNCC3)C1 [Example 106, 2-pyrrolodin-1-yl-4-thiomorpholin-4-yl-6,7,8,9-tetrahydro-5H-pyrimido[4,5-d]azepine] | 
17 | 0.102 | 75.4 | 0.067 |  | OCC1CCN(c2nc(Cc3ccccc3)nc3c2CCNCC3)C1 (stereo not shown) [Example 42, [1-(2-benzyl-6,7,8,9-tetrahydro-5H-pyrimido[4,5-d]azepin-4-yl)pyrrolidin-3-yl]methanol hydrochloride] | 
18 | 0.0163 | 61.7 | 0.077 |  | CCNc1nc(N(C)CC)nc2c1CCNCC2 [Example 98, N-2,N-4-diethyl-N-2-methyl-6,7,8,9-tetra-hydro-5H-pyrimido[4,5-d]-azepin-4-amine] | 
19 |  | 77 | 0.0115 |  | CNc1nc(N2CCSCC2)nc2c1CCNCC2 [Example 93, N-methyl-2-thio-morpholin-4-yl-6,7,8,9-tetrahydro-5H-pyrimido-[4,5-d]azepin-4-amine] | 
20 |  | 84.6 | 0.0676 |  | CN(C)c1nc(N2CCOCC2)nc2c1CCNCC2 [Example 97, N,N-dimethyl-2-morpholin-4-yl-6,7,8,9-tetrahydro-5H-pyrimido-[4,5-d]azepin-4-amine] | 
21 |  | 83.3 | 0.00861 |  | c1ccc(Cc2nc3c(c(OCCc4ccccn4)n2)CCNCC3)cc1 [Example 73, 2-benzyl-4-(2-pyridin-2-ylethoxy)-6,7,8,9-tetrahydro-5H-pyrimido[4,5-d]azepine] | 
